# Measurements published in patent US11254686B1 (Corvus Pharmaceuticals, Inc., priority 2017, dated 2022).
# Experiments:
# adenosine A2A receptor = adenosine A2A receptor (Homo sapiens (Human), UniProt P29274); assay: Adenosine receptor activity assay (Table 1), A2A activity; assay type: biochemical; details: read-out: Ave A2A cAMP IC50
# adenosine A2B receptor = adenosine A2B receptor (Homo sapiens (Human), UniProt P29275); assay: Adenosine receptor activity assay (Table 1), A2B activity; assay type: biochemical; details: for IC50: read-out: Ave A2B cAMP IC50
# adenosine A2B receptor, sequence (P29275 whole entry): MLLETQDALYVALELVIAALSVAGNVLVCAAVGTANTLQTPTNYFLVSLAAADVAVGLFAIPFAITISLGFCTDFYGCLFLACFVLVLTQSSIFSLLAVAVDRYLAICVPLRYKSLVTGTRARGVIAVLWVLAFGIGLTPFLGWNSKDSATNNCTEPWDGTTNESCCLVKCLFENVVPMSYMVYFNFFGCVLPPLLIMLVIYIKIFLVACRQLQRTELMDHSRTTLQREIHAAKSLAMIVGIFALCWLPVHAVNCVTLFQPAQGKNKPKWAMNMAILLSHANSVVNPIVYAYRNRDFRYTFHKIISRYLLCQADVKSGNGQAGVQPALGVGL
# [1] = A2A activity to A2B activity (A2A/A2B)
# [2] = A2A activity to the A2B activity, A2A/A2B
# adenosine A2A receptor, sequence (P29274 whole entry): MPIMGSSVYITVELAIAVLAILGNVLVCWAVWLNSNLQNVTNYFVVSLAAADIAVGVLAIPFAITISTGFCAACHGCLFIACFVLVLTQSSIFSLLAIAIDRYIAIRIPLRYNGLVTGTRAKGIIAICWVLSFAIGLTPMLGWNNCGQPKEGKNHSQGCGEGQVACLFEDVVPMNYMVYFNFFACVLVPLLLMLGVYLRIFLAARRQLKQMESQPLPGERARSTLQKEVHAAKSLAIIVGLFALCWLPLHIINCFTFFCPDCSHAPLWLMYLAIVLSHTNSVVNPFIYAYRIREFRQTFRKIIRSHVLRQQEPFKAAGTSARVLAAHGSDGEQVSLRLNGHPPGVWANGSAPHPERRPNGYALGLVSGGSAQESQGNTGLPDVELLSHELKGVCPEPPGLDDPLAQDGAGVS
IC50 (adenosine A2A receptor) [nM],Ratio (adenosine A2B receptor; [1]),IC50 (adenosine A2B receptor) [nM],Ratio (adenosine A2B receptor; [2]),Compound
100 to 500,8.45,10 to 50,–,"2-(((5-Fluoropyridin-3-yl)methyl)amino)-N-((tetrahydro-2H-pyran-4-yl)methyl)thieno[3,2-d]pyrimidine-4-carboxamide [Example Z219]"
> 500,1.00,> 500,–,"C[C@H](Nc1nc(C(=O)N2CCC[C@H]2CO)c2sccc2n1)c1cccnc1 [Example Z47, ((S)-2-(Hydroxymethyl)pyrrolidin-1-yl)(2-(((S)-1-(pyridin-3-yl)ethyl)amino)thieno[3,2-d]pyrimidin-4-yl)methanone]"
> 500,11.56,> 500,–,"N[C@H]1CCN(C(=O)c2nc(NCc3cc(F)cc(F)c3)nc3ccsc23)C1 [Example Z371, (S)-(3-Aminopyrrolidin-1-yl)(2-((3,5-difluorobenzyl)amino)thieno[3,2-d]pyrimidin-4-yl)methanone]"
100 to 500,–,50 to 100,5.38,"COc1ccc(CCNC(=O)c2nc(N[C@@H](C)c3cncc(F)c3)nc3ccsc23)cc1 [Example Z420, (S)-2-((1-(5-Fluoropyridin-3-yl)ethyl)amino)-N-(4-methoxyphenethyl)thieno[3,2-d]pyrimidine-4-carboxamide]"
10 to 50,–,< 10,5.47,"COCC1CN(C(=O)c2nc(N[C@@H](C)c3ccccn3)nc3cc(C)sc23)C1 [Example Z514, (S)-(3-(Methoxymethyl)azetidin-1-yl)(6-methyl-2-((1-(pyridin-2-yl)ethyl)amino)thieno[3,2-d]pyrimidin-4-yl)methanone]"
50 to 100,0.19,100 to 500,–,"COc1ccc(CNc2nc(C(=O)N3CCCC3)c3sccc3n2)cn1 [Example Z17, (2-(((6-Methoxypyridin-3-yl)methyl)amino)thieno[3,2-d]pyrimidin-4-yl)(pyrrolidin-1-yl)methanone]"
> 500,30.80,100 to 500,–,"C[C@H](Nc1nc(C(=O)N2CCC[C@@H]2CO)c2sccc2n1)c1cccnc1 [Example Z46, ((R)-2-(Hydroxymethyl)pyrrolidin-1-yl)(2-(((S)-1-(pyridin-3-yl)ethyl)amino)thieno[3,2-d]pyrimidin-4-yl)methanone]"
> 500,3.30,> 500,–,"COC[C@H](Nc1nc(C(=O)NC[C@H](C)O)c2sccc2n1)c1cccnc1 [Example Z323, N—((S)-2-Hydroxypropyl)-2-(((R)-2-methoxy-1-(pyridin-3-yl)ethyl)amino)thieno[3,2-d]pyrimidine-4-carboxamide]"
100 to 500,14.35,10 to 50,–,"CNc1cc2nc(N[C@@H](C)c3ccccn3)nc(C(=O)N3CC[C@@H](C)C3)c2s1 [Example Z207, (6-(Methylamino)-2-(((S)-1-(pyridin-2-yl)ethyl)amino)thieno[3,2-d]pyrimidin-4-yl)((R)-3-methylpyrrolidin-1-yl)methanone]"
100 to 500,3.08,50 to 100,–,"C[C@H](Nc1nc(C(=O)Nc2ccccc2)c2sccc2n1)c1ccccn1 [Example Z303, (S)—N-Phenyl-2-((1-(pyridin-2-yl)ethyl)amino)thieno[3,2-d]pyrimidine-4-carboxamide]"
100 to 500,0.62,100 to 500,–,"COc1ccc(CNC(=O)c2nc(NC(C)c3ccccn3)nc3ccsc23)cn1 (stereo not shown) [Example Z49, N-((6-Methoxypyridin-3-yl)methyl)-2-((1-(pyridin-2-yl)ethyl)amino)thieno[3,2-d]pyrimidine-4-carboxamide]"
100 to 500,4.80,10 to 50,–,"CO[C@H]1CCN(C(=O)c2nc(N[C@@H](C)c3cccnc3)nc3cc(C)sc23)C1 [Example Z350, ((S)-3-Methoxypyrrolidin-1-yl)(6-methyl-2-(((S)-1-(pyridin-3-yl)ethyl)amino)thieno[3,2-d]pyrimidin-4-yl)methanone]"
> 500,6.83,> 500,–,"C[C@H](Nc1nc(C(=O)N(C)CCc2ccc(O)cc2)c2sccc2n1)c1cncc(F)c1 [Example Z396, (S)-2-((1-(5-Fluoropyridin-3-yl)ethyl)amino)-N-(4-hydroxyphenethyl)-N-methylthieno[3,2-d]pyrimidine-4-carboxamide]"
100 to 500,27.10,10 to 50,–,"C[C@H](Nc1nc(C(=O)N2CC(O)C2)c2sc(N)cc2n1)c1ccccn1 [Example Z205, (S)-(6-Amino-2-((1-(pyridin-2-yl)ethyl)amino)thieno[3,2-d]pyrimidin-4-yl)(3-hydroxyazetidin-1-yl)methanone]"
> 500,–,10 to 50,8.61,"C[C@H](Nc1nc(C(=O)N2CC[C@H](NC(=O)OCc3ccccc3)C2)c2sccc2n1)c1cncc(F)c1 [Example Z472, Benzyl ((S)-1-(2-(((S)-1-(5-fluoropyridin-3-yl)ethyl)amino)thieno[3,2-d]pyrimidine-4-carbonyl)pyrrolidin-3-yl)carbamate]"
100 to 500,9.26,10 to 50,–,"CC(Nc1nc(C(=O)N2CC[C@@H](F)C2)c2sccc2n1)c1cccnc1 (stereo partly drawn) [Example Z48, ((R)-3-Fluoropyrrolidin-1-yl)(2-((1-(pyridin-3-yl)ethyl)amino)thieno[3,2-d]pyrimidin-4-yl)methanone]"

IC50 (adenosine A2A receptor) [nM],Ratio (adenosine A2B receptor; [1]),IC50 (adenosine A2B receptor) [nM],Ratio (adenosine A2B receptor; [2]),Compound
> 500,2.26,> 500,–,"O=C(NC[C@H]1CCCN1)c1nc(NCc2cncc(F)c2)nc2ccsc12 [Example Z369, (R)-2-(((5-Fluoropyridin-3-yl)methyl)amino)-N-(pyrrolidin-2-ylmethyl)thieno[3,2-d]pyrimidine-4-carboxamide]"
100 to 500,–,100 to 500,–,"Cc1cc2nc(N[C@@H](C)c3cccnc3)nc(C(=O)N3CC(CNC(=O)C(C)(C)C)C3)c2s1 [Example Z505, (S)—N-((1-(6-Methyl-2-((1-(pyridin-3-yl)ethyl)amino)thieno[3,2-d]pyrimidine-4-carbonyl)azetidin-3-yl)methyl)pivalamide]"
100 to 500,4.52,50 to 100,–,"O=C(NC1CCC1)c1nc(NCc2cnccn2)nc2ccsc12 [Example Z154, N-Cyclobutyl-2-((pyrazin-2-ylmethyl)amino)thieno[3,2-d]pyrimidine-4-carboxamide]"
> 500,–,100 to 500,57.47,"C[C@H](Nc1nc(C(=O)NCCC2CNC2)c2sccc2n1)c1ccccn1 [Example Z432, (S)—N-(2-(Azetidin-3-yl)ethyl)-2-((1-(pyridin-2-yl)ethyl)amino)thieno[3,2-d]pyrimidine-4-carboxamide]"
100 to 500,2.82,100 to 500,–,"COc1ccc(Oc2cc(CNC(=O)c3nc(N[C@@H](C)c4cncc(F)c4)nc4ccsc34)ccn2)cc1 [Example Z398, (S)-2-((1-(5-Fluoropyridin-3-yl)ethyl)amino)-N-((2-(4-methoxyphenoxy)pyridin-4-yl)methyl)thieno[3,2-d]pyrimidine-4-carboxamide]"
50 to 100,–,10 to 50,4.89,"Cc1cc2nc(N[C@@H](C)c3cncc(F)c3)nc(C(=O)N3CC(CN(C)C)C3)c2s1 [Example Z502, (S)-(3-((Dimethylamino)methyl)azetidin-1-yl)(2-((1-(5-fluoropyridin-3-yl)ethyl)amino)-6-methylthieno[3,2-d]pyrimidin-4-yl)methanone]"
> 500,–,100 to 500,5.22,"COC(=O)c1ccc(CCNC(=O)c2nc(N[C@@H](C)c3cncc(F)c3)nc3ccsc23)cc1 [Example Z423, Methyl (S)-4-(2-(2-((1-(5-fluoropyridin-3-yl)ethyl)amino)thieno[3,2-d]pyrimidine-4-carboxamido)ethyl)benzoate]"
> 500,68.03,100 to 500,–,"C[C@H](Nc1nc(C(=O)N2CCC(C(=O)O)C2)c2sccc2n1)c1cncc(F)c1 (stereo partly drawn) [Example Z379, 1-(2-(((S)-1-(5-Fluoropyridin-3-yl)ethyl)amino)thieno[3,2-d]pyrimidine-4-carbonyl)pyrrolidine-3-carboxylic acid]"
100 to 500,–,–,–,"CCC(Nc1nc(C(=O)NCc2ccc(OC)nc2)c2sccc2n1)c1cccnc1 (stereo not shown) [Example Z83, N-((6-Methoxypyridin-3-yl)methyl)-2-((1-(pyridin-3-yl)propyl)amino)thieno[3,2-d]pyrimidine-4-carboxamide]"
–,–,100 to 500,–,C[C@H](Nc1nc(C(=O)N2CC[C@@H](S(C)(=O)=O)C2)c2sccc2n1)c1ccccn1 [Example Z256]
–,–,100 to 500,–,"CNCC1CN(C(=O)c2nc(N[C@@H](C)c3cncc(F)c3)nc3ccsc23)C1 [Example Z544, (S)-(2-((1-(5-Fluoropyridin-3-yl)ethyl)amino)thieno[3,2-d]pyrimidin-4-yl)(3-((methylamino)methyl)azetidin-1-yl)methanone]"
–,–,10 to 50,–,"COCC(Nc1nc(C(=O)N2CCC2)c2sccc2n1)c1cccnc1 (stereo not shown) [Example Z126, Azetidin-1-yl(2-((2-methoxy-1-(pyridin-3-yl)ethyl)amino)thieno[3,2-d]pyrimidin-4-yl)methanone]"
100 to 500,–,–,–,"C[C@H](Nc1nc(C(=O)N[C@H]2CC[C@@H](O)C2)c2sccc2n1)c1ccccn1 [Example Z332, N-((1S,3R)-3-Hydroxycyclopentyl)-2-(((S)-1-(pyridin-2-yl)ethyl)amino)thieno[3,2-d]pyrimidine-4-carboxamide]"
100 to 500,–,–,–,"C[C@H](Nc1nc(C(=O)NCCc2ccccc2O)c2sccc2n1)c1cncc(F)c1 [Example Z448, (S)-2-((1-(5-fluoropyridin-3-yl)ethyl)amino)-N-(2-hydroxyphen-ethyl)thieno[3,2-d]pyrimidine-4-carboxamide]"
–,3.23,50 to 100,–,"COc1cncc(CNC(=O)c2nc(N[C@@H](C)c3ccccn3)nc3ccsc23)c1 [Example Z110, (S)—N-((5-Methoxypyridin-3-yl)methyl)-2-((1-(pyridin-2-yl)ethyl)amino)thieno[3,2-d]pyrimidine-4-carboxamide]"
